The values that follow come from PMC5209447, “Aryl-1,3,5-triazine ligands of histamine H4 receptor attenuate inflammatory and nociceptive response to carrageen, zymosan and lipopolysaccharide” (Inflammation Research, 2016).

The target in the assay is T1, phosphodiesterase 4B1 (PDE 4B1) (Homo sapiens, UniProt Q07343).
T1 construct: gene PDE4B; PDE 4B1 (BPS Biosciences)
The experiment in a line: PDELight bioluminescent cAMP phosphodiesterase assay, % inhibition at […]. To be noted: read-out: PDE 4B1 inhibition (%) ± SEM. Format: biochemical.

T1 sequence (Q07343 whole entry): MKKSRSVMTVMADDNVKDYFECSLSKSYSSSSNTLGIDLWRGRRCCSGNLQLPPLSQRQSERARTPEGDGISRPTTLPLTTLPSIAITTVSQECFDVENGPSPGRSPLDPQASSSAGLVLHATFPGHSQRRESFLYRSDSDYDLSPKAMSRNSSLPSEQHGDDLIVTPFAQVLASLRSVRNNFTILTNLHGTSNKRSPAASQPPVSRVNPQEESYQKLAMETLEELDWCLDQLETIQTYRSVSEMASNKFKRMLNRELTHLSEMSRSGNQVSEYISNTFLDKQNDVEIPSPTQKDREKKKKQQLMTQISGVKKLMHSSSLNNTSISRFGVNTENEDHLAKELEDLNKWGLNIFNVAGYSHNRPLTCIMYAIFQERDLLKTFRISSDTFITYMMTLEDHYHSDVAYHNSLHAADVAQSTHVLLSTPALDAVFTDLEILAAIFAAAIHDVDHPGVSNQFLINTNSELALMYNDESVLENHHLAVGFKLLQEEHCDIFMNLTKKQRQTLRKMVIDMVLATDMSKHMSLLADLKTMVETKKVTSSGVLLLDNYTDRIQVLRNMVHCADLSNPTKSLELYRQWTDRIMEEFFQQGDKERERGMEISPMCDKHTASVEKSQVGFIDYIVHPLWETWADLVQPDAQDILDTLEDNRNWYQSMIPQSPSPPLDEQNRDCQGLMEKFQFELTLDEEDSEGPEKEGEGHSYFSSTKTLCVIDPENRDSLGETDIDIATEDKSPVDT

As for `Nc1nc(N)nc(-c2cc(Cl)ccc2Cl)n1` [Irsogladine], the inhibition (in general, the percentage by which the read-out fell short of the control) at 100 µM is 31 ± 0.5%.
Consider `COc1ccc(C2CNC(=O)C2)cc1OC1CCCC1` (centres unmarked) [Rolipram], for which the inhibition at 50 µM worked out at 95%.
